SMILES strings stand for the structures.

The target of assay [1] is Sigma non-opioid intracellular receptor 1 (Cavia porcellus) (UniProt Q60492). As to the kind of experiment: Binding affinity against sigma-1 receptor in guinea pig brain using [3H](+)-pentazocine as radioligand.
Assay [2] shares this target. Description: Binding affinity against sigma-1 receptor in guinea pig brain using [3H](+)-pentazocine as radioligand.

Sequence of Sigma non-opioid intracellular receptor 1 (Cavia porcellus) (Q60492 whole entry, looked up): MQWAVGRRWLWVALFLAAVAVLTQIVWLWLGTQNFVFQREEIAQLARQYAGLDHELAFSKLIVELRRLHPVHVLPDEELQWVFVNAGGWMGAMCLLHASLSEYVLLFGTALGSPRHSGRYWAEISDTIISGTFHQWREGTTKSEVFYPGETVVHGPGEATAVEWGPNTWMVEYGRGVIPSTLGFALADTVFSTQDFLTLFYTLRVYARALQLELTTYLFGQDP

Consider `O=C(NC1CCN(Cc2ccccc2)CC1)c1ccccc1I` [N-(1-Benzyl-piperidin-4-yl)-2-iodo-benzamide], for which the affinity in assay [1], expressed as Ki, was 1.64 nM. This counts as single-digit nanomolar. On to `O=C(NC1CCN(Cc2ccccc2)CC1)c1cccc(I)c1` [N-(1-Benzyl-piperidin-4-yl)-3-iodo-benzamide], for which the Ki (usually the dissociation constant of the complex between target and ligand, obtained from inhibition or displacement) in assay [2] was 3.02 nM.

(Values after BindingDB's records for doi:10.1021/jm00038a002 (George Washington University Medical Center, 1994).)
